Measured values reported in patent US7851474B2, “Dipiperazinyl ketones and related analogues” (Neurogen Corporation, priority 2005, dated 2010).

The compounds below were run against T1, chimeric human H3 receptor (Homo sapiens, UniProt Q9Y5N1, E19D) (assay: Chimeric human H3 receptor screening GTP binding assay (inhibition of histamine-stimulated GTP-gamma35S binding, Example 8)). Conditions: 1 h; "+" in Ki of Table II; assay of Example 8; read-out: percent inhibition of agonist-induced GTP-gammaS binding to H3.
T1 construct: made in house; host or cells: Sf9 insect cells (baculovirus infection); P2 membrane preparation
T1 sequence (Q9Y5N1 with tags, fused parts or gaps E19D): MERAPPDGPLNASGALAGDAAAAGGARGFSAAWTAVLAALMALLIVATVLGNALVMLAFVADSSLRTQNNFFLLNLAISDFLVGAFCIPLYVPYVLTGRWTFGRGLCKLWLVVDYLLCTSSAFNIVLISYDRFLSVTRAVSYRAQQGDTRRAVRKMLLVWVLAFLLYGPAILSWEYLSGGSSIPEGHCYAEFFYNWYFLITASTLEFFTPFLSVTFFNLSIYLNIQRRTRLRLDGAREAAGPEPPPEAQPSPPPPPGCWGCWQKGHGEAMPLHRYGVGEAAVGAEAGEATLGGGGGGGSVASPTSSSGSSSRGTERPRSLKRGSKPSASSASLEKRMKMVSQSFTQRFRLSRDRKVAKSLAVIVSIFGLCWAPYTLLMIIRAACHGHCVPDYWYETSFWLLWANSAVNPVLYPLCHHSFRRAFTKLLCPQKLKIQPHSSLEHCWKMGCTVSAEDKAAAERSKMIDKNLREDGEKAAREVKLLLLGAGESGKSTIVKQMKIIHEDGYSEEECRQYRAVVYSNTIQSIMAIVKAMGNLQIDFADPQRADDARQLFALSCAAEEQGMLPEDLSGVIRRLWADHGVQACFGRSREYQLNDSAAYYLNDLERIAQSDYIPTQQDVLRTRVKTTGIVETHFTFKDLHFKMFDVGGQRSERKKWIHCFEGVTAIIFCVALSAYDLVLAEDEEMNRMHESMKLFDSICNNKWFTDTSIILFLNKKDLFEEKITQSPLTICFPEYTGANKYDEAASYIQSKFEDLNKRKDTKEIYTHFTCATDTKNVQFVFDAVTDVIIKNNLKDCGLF
Type: biochemical
Outline: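 Data are percent inhibition of the 1 μM histamine-stimulated GTP-gamma35S (125 pM) binding, after non-specific binding (10 uM GTP-gammaS) is subtracted. Test compound at 4 μM. Incubation was 60 min at room temperature with Sf9 membranes bearing receptor plus G-protein subunits, buffer pH 7.4 with 10 μM GDP, and filtration read-out.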

| inhibition at 4 µM [%] | Structure (SMILES) |
| --- | --- |
| > 90 | COc1ccccc1/C=C/C(=O)N1CCN(CC(=O)N2CCN(C3CCC3)CC2)CC1 [Compound 525, 1-cyclobutyl-4-({4-[(2E)-3-(2-methoxyphenyl)prop-2-enoyl]piperazin-1-yl}acetyl)piperazine] |
| > 90 | Cc1c(C(=O)N2CCN(CC(=O)N3CCN(C4CCC4)CC3)CC2)cnn1-c1ccccc1 [Compound 569, 1-cyclobutyl-4-({4-[(5-methyl-1-phenyl-1H-pyrazol-4-yl)carbonyl]piperazin-1-yl}acetyl)piperazine] |
| > 90 | CC(C)(C)c1ccc(Oc2ncccc2C(=O)N2CCN(CC(=O)N3CCN(C4CCC4)CC3)CC2)cc1 [Compound 474, 1-{[2-(4-tert-butylphenoxy)pyridin-3-yl]carbonyl}-4-[2-(4-cyclobutylpiperazin-1-yl)-2-oxoethyl]piperazine] |
| > 90 | CCC(C)N1CCN(C(=O)CN2CCN(C(C)=O)CC2)CC1 (stereo not shown) [Compound 486, 1-acetyl-4-[2-(4-sec-butylpiperazin-1-yl)-2-oxoethyl]piperazine] |
| > 90 | Cc1nnsc1C(=O)N1CCN(CC(=O)N2CCN(C3CCC3)CC2)CC1 [Compound 564, 1-cyclobutyl-4-({4-[(4-methyl-1,2,3-thiadiazol-5-yl)carbonyl]piperazin-1-yl}acetyl)piperazine] |
| > 90 | CCCc1c(C(=O)N2CCN(CC(=O)N3CCN(C4CCC4)CC3)CC2)cnn1-c1ccc(Cl)cc1 [Compound 472, 1-{[1-(4-chlorophenyl)-5-propyl-1H-pyrazol-4-yl]carbonyl}-4-[2-(4-cyclobutylpiperazin-1-yl)-2-oxoethyl]piperazine] |
| > 90 | COc1ccc(C(=O)N2CCN(CC(=O)N3CCN(C4CCC4)CC3)CC2)c(OC)n1 [Compound 513, 1-cyclobutyl-4-({4-[(2,6-dimethoxypyridin-3-yl)carbonyl]piperazin-1-yl}acetyl)piperazine] |
| > 90 | O=C(CN1CCN(C(=O)c2cc(C(F)(F)F)ccc2Cl)CC1)N1CCN(C2CCC2)CC1 [Compound 452, 1-[2-chloro-5-(trifluoromethyl)benzoyl]-4-[2-(4-cyclobutylpiperazin-1-yl)-2-oxoethyl]piperazine] |

| Structure (SMILES) | inhibition at 4 µM [%] |
| --- | --- |
| Cc1ccc(CC(=O)N2CCN(CC(=O)N3CCN(C4CCC4)CC3)CC2)cc1 [Compound 566, 1-cyclobutyl-4-({4-[(4-methylphenyl)acetyl]piperazin-1-yl}acetyl)piperazine] | > 90 |
| COc1ccccc1OCC(=O)N1CCN(CC(=O)N2CCN(C3CCC3)CC2)CC1 [Compound 535, 1-cyclobutyl-4-({4-[(2-methoxyphenoxy)acetyl]piperazin-1-yl}acetyl)piperazine] | > 90 |
| O=C(COc1ccc(Cl)c(Cl)c1)N1CCN(CC(=O)N2CCN(C3CCC3)CC2)CC1 [Compound 545, 1-cyclobutyl-4-({4-[(3,4-dichlorophenoxy)acetyl]piperazin-1-yl}acetyl)piperazine] | > 90 |
| Cc1cccc(OCC(=O)N2CCN(CC(=O)N3CCN(C4CCC4)CC3)CC2)c1C [Compound 503, 1-cyclobutyl-4-({4-[(2,3-dimethylphenoxy)acetyl]piperazin-1-yl}acetyl)piperazine] | > 90 |

Same assay, conditions: 1 h; Table II "Ki", symbol "+": assay described in Example 8; read-out: percent inhibition of agonist-induced GTP-gammaS binding to H3

| inhibition at 4 µM [%] | Structure (SMILES) |
| --- | --- |
| > 90 | CCCc1ccc(C(=O)N2CCN(CC(=O)N3CCN(C4CCC4)CC3)CC2)cc1 [Compound 790, 1-cyclobutyl-4-{[4-(4-propylbenzoyl)piperazin-1-yl]acetyl}piperazine] |

Same assay, conditions: 1 h; Table II, "+" in the column headed Ki; assay of Example 8; read-out: percent inhibition of agonist-induced GTP-gammaS binding to H3

| inhibition at 4 µM [%] | Structure (SMILES) |
| --- | --- |
| > 90 | CCC(C(=O)N1CCN(CC(=O)N2CCN(C3CCC3)CC2)CC1)c1ccccc1 (stereo not shown) [Compound 721, 1-cyclobutyl-4-{[4-(2-phenylbutanoyl)piperazin-1-yl]acetyl}piperazine] |
| > 90 | Cc1ccc(C(=O)N2CCN(CC(=O)N3CCN(C4CCC4)CC3)CC2)cc1C [Compound 734, 1-cyclobutyl-4-{[4-(3,4-dimethylbenzoyl)piperazin-1-yl]acetyl}piperazine] |
| > 90 | Cn1nc(C(F)(F)F)cc1-c1ccc(C(=O)N2CCN(CC(=O)N3CCN(C4CCC4)CC3)CC2)s1 [Compound 661, 1-cyclobutyl-4-{[4-({5-[1-methyl-3-(trifluoromethyl)-1H-pyrazol-5-yl]-2-thienyl}carbonyl)piperazin-1-yl]acetyl}piperazine] |
| > 90 | O=C(CN1CCN(C(=O)c2ccsc2)CC1)N1CCN(C2CCC2)CC1 [Compound 765, 1-cyclobutyl-4-{[4-(3-thienylcarbonyl)piperazin-1-yl]acetyl}piperazine] |
| > 90 | CC(C)C(C(=O)N1CCN(CC(=O)N2CCN(C3CCC3)CC2)CC1)c1ccccc1 (stereo not shown) [Compound 760, 1-cyclobutyl-4-{[4-(3-methyl-2-phenylbutanoyl)piperazin-1-yl]acetyl}piperazine] |
| > 90 | O=C(CN1CCN(C(=O)c2ccc(Cl)cc2Cl)CC1)N1CCN(C2CCC2)CC1 [Compound 674, 1-cyclobutyl-4-{[4-(2,4-dichlorobenzoyl)piperazin-1-yl]acetyl}piperazine] |
| > 90 | O=C(CN1CCN(C(=O)c2ccc(-n3cccc3)nc2)CC1)N1CCN(C2CCC2)CC1 [Compound 635, 1-cyclobutyl-4-[(4-{[6-(1H-pyrrol-1-yl)pyridin-3-yl]carbonyl}piperazin-1-yl)acetyl]piperazine] |
| > 90 | CC(Oc1ccc(OC(F)(F)F)cc1)C(=O)N1CCN(CC(=O)N2CCN(C3CCC3)CC2)CC1 (stereo not shown) [Compound 637, 1-cyclobutyl-4-[(4-{2-[4-(trifluoromethoxy)phenoxy]propanoyl}piperazin-1-yl)acetyl]piperazine] |
| > 90 | O=C(CN1CCN(C(=O)c2ccc(C(F)(F)F)cc2)CC1)N1CCN(C2CCC2)CC1 [Compound 605, 1-cyclobutyl-4-({4-[4-(trifluoromethyl)benzoyl]piperazin-1-yl}acetyl)piperazine] |

Same assay, conditions: 1 h; assay described in Example 8; symbol + in column headed Ki of Table II; read-out: percent inhibition of agonist-induced GTP-gammaS binding to H3

| inhibition at 4 µM [%] | Structure (SMILES) |
| --- | --- |
| > 90 | COc1cc(Cl)ccc1C(=O)N1CCN(CC(=O)N2CCN(C3CCC3)CC2)CC1 [Compound 342, 1-(4-chloro-2-methoxybenzoyl)-4-[2-(4-cyclobutylpiperazin-1-yl)-2-oxoethyl]piperazine] |
| > 90 | O=C(CN1CCN(C(=O)c2sc3ccccc3c2Cl)CC1)N1CCN(C2CCC2)CC1 [Compound 397, 1-[(3-chloro-1-benzothien-2-yl)carbonyl]-4-[2-(4-cyclobutylpiperazin-1-yl)-2-oxoethyl]piperazine] |
| > 90 | Cc1ccc(C(=O)N2CCN(CC(=O)N3CCN(C4CCC4)CC3)CC2)cc1Cl [Compound 298, 1-(3-chloro-4-methylbenzoyl)-4-[2-(4-cyclobutylpiperazin-1-yl)-2-oxoethyl]piperazine] |
| > 90 | Cn1nc(C(C)(C)C)cc1C(=O)N1CCN(CC(=O)N2CCN(C3CCC3)CC2)CC1 [Compound 401, 1-[(3-tert-butyl-1-methyl-1H-pyrazol-5-yl)carbonyl]-4-[2-(4-cyclobutylpiperazin-1-yl)-2-oxoethyl]piperazine] |

| Structure (SMILES) | inhibition at 4 µM [%] |
| --- | --- |
| O=C(Cc1ccc(Cl)cc1)N1CCN(CC(=O)N2CCN(C3CCC3)CC2)CC1 [Compound 407, 1-[(4-chlorophenyl)acetyl]-4-[2-(4-cyclobutylpiperazin-1-yl)-2-oxoethyl]piperazine] | > 90 |
| O=C(Cc1ccc2c(c1)OCO2)N1CCN(CC(=O)N2CCN(C3CCC3)CC2)CC1 [Compound 259, 1-(1,3-benzodioxol-5-ylacetyl)-4-[2-(4-cyclobutylpiperazin-1-yl)-2-oxoethyl]piperazine] | > 90 |
